Data on 28 compounds can be found in patent US11548845B2, “Methods of isolating phenols from phenol-containing media” (WISCONSIN ALUMNI RESEARCH FOUNDATION, priority 2019, dated 2023).

Several values for one entry are separate records, joined by “and”; a condition that tells them apart may be missing. Equal entries are not always repeated. Marks after values point to notes of the source that are not given here.

The conditions of data set [1]: surfactants of Table 2; cited from earlier work.
A short description of data set [2]: Interaction of 1% w/v lecithin with individual polyphenols, depletion from solution by HPLC. The note with it: pH 2.43, anthocyanins depleted from single-strength cranberry juice, others from aqueous solution. The method, then: Aqueous polyphenol solutions near saturation were prepared by dissolving the individual polyphenols in 50 mL ultrapure water. Depends on their solubility in water, the polyphenols solutions were made in different concentrations. […] The pH of the solution was then adjusted to ˜2.43 using 6 M HCl in order to approximate the pH of juice. The adjusted solution was centrifuged at 3220×g for 20 min to remove any undissolved solids. Next, 1% w/v lecithin was added to 10 mL of the supernatant containing the polyphenols or the phenolic acids. The mixture was vortexed for 1 min and then centrifuged at 3220×g for 20 min to pellet any precipitate. The supernatant was transferred to a 2 mL microcentrifuge tube and was centrifuged for another 20 min at 21130×g before HPLC analysis. The depletion of individual polyphenol content expressed as a percent was determined according to the following equation: Polyphenol and phenolic acid content remaining in the supernatant were quantitated by reverse phase HPLC using a Dionex Ultimate 3000 HPLC equipped with an LPG-3400 quaternary pump, a WPS-3000 analytical autosampler, a DAD-3000 diode array detector, and an FLD-3100 fluorescence detector. […] Separation was with formic acid:water (5:95, v/v) (A) and methanol (B). The flow rate was set to 1 mL/min. The gradient was initially 5% B for 1 min, then increased to 35% B over 39 min, from 35% to 95% B over the next 10 min, and held constant at 95% B for 5 min, then decreased to 5% B over 2 min, and re-equilibrated at 5% B for the remaining 8 min. The column oven was set to 30° C. The absorbance was monitored at 254, 280, 370 and 520 nm. […] The gallic acid peaks in the 280 nm chromatogram was quantitated on the basis of authentic external standards. […] The flow rate was set to 0.5 mL/min. The gradient began at 15% B for 2 min, increased to 90% B over 6 min, then decreased to 15% B over 1 min and re-equilibrated at 15% B for the remaining 1 min. The column oven was set to 25° C. We collected absorbance data at 254, 280, 370 and 520 nm. All the peaks were identified in comparison to authentic external standards.

For data set [3] the following is noted: values from literature; cited from earlier work.
Data set [4] in a line: Depletion of monomeric anthocyanins in diluted cranberry juice by surfactants, lecithins or phospholipids (pH differential method). The method, then: Classic Mash Cranberry Juice Concentrate with essence returned was received frozen from the supplier (Ocean Spray Cranberries Inc., Lakeville-Middleboro, Mass., U.S.A.). The concentrate came at 50.0° Brix from manufacturer. It was immediately thawed, aliquoted and stored at −20° C. until use. Prior to experiment use, the concentrate was thawed, brought to room temperature, and diluted to 7.5° Brix according to the manufacture specification.
Individual surfactants/phospholipids were added to 10 mL juice samples at a final concentration of 0.01 M. Varying amounts of lecithin were added to 10 mL juice samples at 0.05, 0.1, 0.5, 1, 2, 3, 4, or 5% w/v. Lecithin with different HLB values were added to 10 mL juice samples at 1, 2, 3, 4, or 5% w/v. All mixtures were then vortexed for 3 min and then centrifuged at 3220×g for 20 min. The centrifugation step was repeated with the supernatants. All procedures were carried out at ambient temperatures unless otherwise specified.
Monomeric anthocyanin (MA) content was determined by the AOAC pH differential method. Samples were placed in 96-well plates (Thermo Scientific) for spectral acquisition using a SpectraMax Plus Microplate Reader (Molecular Devices, Sunnyvale, Calif., U.S.A.). We used the SoftMax Pro 5.4.4 to scale for pathlength (Molecular Devices, Sunnyvale, Calif., U.S.A.). Juice samples were diluted such that the absorbance at 520 nm was within the linear range of the instrument. Triplicate samples were analyzed, and the average values are reported.
The depletion of MA expressed as a percent was determined according to the following equation: […]

For data set [5] the following is noted: cited from earlier work; for pka: phospholipid components of lecithin.
[6] abbreviates: 0.01M phospholipid in cranberry juice.

For the compound `CCCCCCCC/C=C\CCCCCCCC(=O)OCC(O)CO` (racemic) [glycerol monooleate], in data set [1], the HLB value is given as 3.4.

Take `CCCCCCCCCCCCCCCCCC(=O)OCC(O)CO` (racemic) [glycerol monostearate]: in data set [1], the HLB value is on record as 3.8.

Broadly, the Log P is the decadic logarithm of the partition coefficient of the neutral form, usually between octanol and water. For `Oc1cc(O)c2c(c1)O[C@H](c1ccc(O)c(O)c1)[C@@H](O)C2` [(+)-catechin], the figures for the Depletion % in data set [2] and in data set [2] (listed as (+)-Catechin) were 18.4% and 18.4±0.5%, respectively. Moreover, the “Log P” value in data set [3] is on record as 0.51^†.

As to `Oc1cc(O)c2cc(O[C@@H]3OC[C@H](O)[C@H](O)[C@H]3O)c(-c3ccc(O)c(O)c3)[o+]c2c1` [cyanidin-3-O-arabinoside], the Depletion % in data set [2] came out at 16.0%; in data set [2] (listed as cyanidin-3-O-arabinose) it was 16.0±6.5%.

With `OC[C@H]1O[C@@H](Oc2cc3c(O)cc(O)cc3[o+]c2-c2ccc(O)c(O)c2)[C@H](O)[C@@H](O)[C@H]1O` [cyanidin-3-O-galactoside], the Depletion % in data set [2] was 49.1±3.5% and 49.1%.

Turning to `OC[C@H]1O[C@@H](Oc2cc3c(O)cc(O)cc3[o+]c2-c2ccc(O)c(O)c2)[C@H](O)[C@@H](O)[C@@H]1O` [cyanidin-3-O-glucoside], the figures for the Depletion % in data set [2] and in data set [2] (listed as Cyanidin-3-O-glucoside) were 45.0% and 45.0±3.5%, respectively. Also, in data set [3], the lipophilicity (Log P) was 0.39^†.

Regarding `Oc1cc(O)c2cc(O[C@H]3OC[C@H](O)[C@H](O)[C@H]3O)c(-c3cc(O)c(O)c(O)c3)[o+]c2c1` [delphinidin-3-O-arabinoside], the Depletion % in data set [2] came to 11.1%; in data set [2] (listed as Delphinidin-3-O-arabinose), 11.1±4.9%.

On to `O=C(O)c1cc(O)c(O)c(O)c1` [gallic acid], for which the Depletion % entry in data set [2] was “did not induce precipitation of lecithin”.

For the compound `O=c1c(-c2ccc(O)cc2)coc2cc(O)cc(O)c12` [genistein], the Depletion % is given as 61.0% in data set [2] and 61.0±3.8% in data set [2] (listed as Genistein).

Regarding `CCCCCCCC/C=C\CCCCCCCC(=O)OCC(CO)OC(=O)CCCCCCC/C=C\CCCCCCCC` (stereo not shown) [glycerol dioleate], the HLB value in data set [1] is on record as 1.9.

For `CCCCCCCCCCCC(=O)OCC(O)CO` (stereo not shown) [glycerol monolaurate], the HLB value in data set [1] is recorded as 5.2.

With `CCCCCCCC/C=C\CCCCCCCC(=O)O` [oleic acid], the HLB value in data set [1] is on record as 1.

Take `COc1cc(-c2[o+]c3cc(O)cc(O)c3cc2O[C@@H]2O[C@H](CO)[C@@H](O)[C@H](O)[C@H]2O)ccc1O` [peonidin-3-O-glucoside]: the Depletion % in data set [2] was 43.0±4.0% and 43.0%.

Take `O=c1c(O[C@@H]2O[C@H](CO)[C@H](O)[C@H](O)[C@H]2O)c(-c2ccc(O)c(O)c2)oc2cc(O)cc(O)c12` [quercetin-3-O-galactoside]: the Depletion % was 35.4% in data set [2] and 35.4±1.0% in data set [2] (listed as Quercetin-3-O-galactoside).

On to `O=c1c(O)c(-c2ccc(O)c(O)c2)oc2cc(O)cc(O)c12` [quercetin], for which the Depletion % in data set [2] was 41.3%; in data set [2] (listed as Quercetin), 41.3±1.8%. In addition, the log partition coefficient (Log P) in data set [3] is 1.82 ± 0.32.

As to `Oc1ccc(C=Cc2cc(O)cc(O)c2)cc1` [resveratrol], in data set [3], the “Log P” value is on record as 2.57^†.

On to `CCCCCCCCCCCCOS(=O)(=O)[O-].[Na+]` [sodium dodecyl sulfate], for which the HLB value in data set [1] is recorded as 40.

Take `CCCCCCCC/C=C\CCCCCCCC(=O)[O-].[Na+]` [sodium oleate]: the HLB value in data set [1] was 18.

Consider L-a-phosphatidylinositol (soy) [PI], for which the “Depletion % of monomeric anthocyanins” value is 41.4±8.5% and 41.4 ± 8.5^a % in data set [4] (setting [6]); 41.4±8.5% in data set [4] (0.01M phospholipid in cranberry juice, listed as Phosphatidylinositol (PI)). The pka in data set [5] is 2.5.

With Phosphatidylcholine (soy) [PC], the “Depletion % of monomeric anthocyanins” value in data set [4] (setting [6]) is 6.69±3.57% and 6.69 ± 3.6^b %. For the same compound, the pka in data set [5] was 1.0.

Turning to Phosphatidylethanolamine (soy) [PE], the “Depletion % of monomeric anthocyanins” value in data set [4] (setting [6]) was 10.4±2.5% and 10.4 ± 2.5^b %. Moreover, in data set [5], the “pKa of the amino group” value is reported as “about 9.5” and the pka is recorded as 1.7.

Consider hexaglycerol dioleate, for which the HLB value in data set [1] is listed as 9.

With peonidin-3-O-arabinoside, the Depletion % stood at 10.1% in data set [2] and 10.1±6.3% in data set [2] (listed as peonidin-3-O-arabinose).

On to peonidin-3-O-galactoside, for which the Depletion % in data set [2] amounted to 42.2%; in data set [2] (listed as Peonidin-3-O-galactoside), 42.2±4.1%.

As to sodium stearoyl lactylate, the HLB value in data set [1] is given as 5.1.

In the case of sorbitan monostearate, in data set [1], the HLB value was 4.7.

On to “sorbitan tristearate [sorbitan tristearate (Span 65)]”, for which the “Depletion % of monomeric anthocyanins” value in data set [4] (0.01M surfactants in diluted cranberry juice) is on record as 2.85%; in data set [4] (0.01M surfactants in diluted cranberry juice, listed as sorbitan tristearate) it was “no significant changes”.

In the case of triglycerol monostearate, the HLB value in data set [1] is reported as 7.
